We go through twelve compounds from US5808151A, “Biphenylamido derivatives as melatonergic agents” (Bristol-Myers Squibb Company, priority 1997, dated 1998).

In assay [1] the target is ML1 rabbit melatonin receptor. In words: Melatonergic binding: ML1 rabbit melatonin receptor binding (2-[125I]-iodomelatonin, rabbit parietal cortex). Set-up: species or system rabbit (Male New Zealand white). The settings on record: 37° C., 1 hour, read-out: In-Vitro Receptor Binding Activities ML1 (IC50). On the procedure: (§1) The melatonergic binding of the compounds of Formula I was determined by the method of Reppert, S. M., et al., as described in Neuron, Vol. 13, 1177-1185 (1994) and Proc. Nat. Acad. Sci. USA, 92, 8734-8738 (1995) and also as described by Stankov, B., et al., "Characterization and mapping of melatonin receptors in the brain of three mammalian species: Rabbit, horse and sheep," in Neuroendocrinology, 53, 214-221 (1991). The assays were incubated at 37° C. for 1 hour, and the reaction was terminated by filtration through a Brandel cell harvester. The filters were washed 3 times with wash buffer. […] The reagents, membranes, and techniques used in the melatonergic binding assays are more fully described below:
(§2) (a) 50 mM Tris buffer containing 12.5 mM MgCl2 and 2 mM EDTA (pH 7.4 at 37° C.).
(§3) (b) Wash buffer: 20 mM Tris base containing 2 mM MgCl2 (pH 7.4 at room temperature).
(§4) (c) 6-Chloromelatonin (10^-5 M final concn.).
(§5) (d) 2-[^125 I]-Iodomelatonin. Source: New England Nuclear
Male New Zealand white rabbits (Hazelton Research) are decapitated, the brains are rapidly removed and chilled. The parietal cortex is crudely dissected and the tissue frozen on dry ice at -80° C. until assayed. Tissue is weighed and thawed in 20 mls of ice-cold Tris buffer (a) and then homogenized by treatment with a polytron for 10 seconds at setting 17. Ice cold Tris (a) is added to a volume of 40 ml. The homogenate is centrifuged in a Sorvall-SS-34 head at 19,000 rpm (44,000× g) for 20 min at 4° C. The resulting supernatant is decanted and discarded. The pellet is re-homogenized in an additional 20 ml of Tris buffer, diluted and centrifuged as before. The supernatant is decanted and discarded. The resulting pellet is homogenized in 20 volumes of Tris buffer per gram of original tissue (a 1:20 homogenate), chilled, and held on ice until assayed.

Assay [2] deals with T1, ML1a human melatonin receptor (Homo sapiens, UniProt P48039).
T1 construct: expressed in transfected cells; host or cells: COS-1 cells
In words: Melatonergic binding: ML1a human melatonin receptor binding (2-[125I]-iodomelatonin, COS-1 cell membranes). Conditions: human ML1a in COS-1 cells; 37° C., 1 hour; read-out: In-Vitro Receptor Binding Activities ML1a (IC50). On the procedure: as §1, §2, §3, §4, §5
The cDNA (human ML1a) was introduced into COS-1 cells by the DEAE-dextran method. Three days later, the media was removed, the plates washed with phosphate buffered saline, the cells removed using Hank's balanced salt solution and pelleted. The supernatant was discarded and the pellets frozen. For preparing membrane homogenates, the pellets are thawed on ice, and resuspended in TME buffer [Tris base, MgCl2, EDTA (pH 7.4 at 37° C.], supplemented with aprotinin, leupeptin and phenylmethyl-sulfonylfluoride. The cells were then homogenized using a dounce homogenizer and centrifuged. The resulting pellet was resuspended with a dounce homogenizer in TME and frozen. On the day of assay, a small aliquot was thawed on ice and resuspended in TME buffer (1:1000).

T1 sequence (P48039 whole entry): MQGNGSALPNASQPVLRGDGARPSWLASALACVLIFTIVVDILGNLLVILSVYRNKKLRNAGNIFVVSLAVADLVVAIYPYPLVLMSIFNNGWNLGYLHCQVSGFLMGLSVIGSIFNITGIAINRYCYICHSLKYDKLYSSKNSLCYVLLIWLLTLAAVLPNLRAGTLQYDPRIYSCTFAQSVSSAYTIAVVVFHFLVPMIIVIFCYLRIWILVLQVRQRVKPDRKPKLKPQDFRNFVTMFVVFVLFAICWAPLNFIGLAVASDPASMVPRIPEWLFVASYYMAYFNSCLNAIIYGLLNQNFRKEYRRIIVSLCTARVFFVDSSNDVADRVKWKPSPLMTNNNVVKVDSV

In general, IC50 refers to the point on the concentration scale where inhibition reaches its midpoint. With `CCCC(=O)Nc1cccc(-c2cccc(OC)c2)c1` [Example 1, N-(3'-Methoxy-[1,1'-biphenyl]-3-yl)butanamide], the results for the half-maximal inhibitory concentration (IC50) in assay [1] and in assay [2] were less than 10 nM and less than 100 nM, respectively. Taken in the same sequence, the figures for `COc1cccc(-c2cccc(NC(=O)C(C)C)c2)c1` [Example 2, N-(3'-Methoxy-[1,1'-biphenyl]-3-yl)2-methylpropanamide] were greater than 50 nM and less than 100 nM. On to `COc1cccc(-c2cccc(NC(=O)C3CC3)c2)c1` [Example 3, N-(3'-Methoxy-[1,1'-biphenyl]-3-yl)cyclopropanecarboxamide], for which, in assay [2], the IC50 was less than 100 nM.

Turning to `CCC(=O)Nc1cccc(-c2cccc(OC)c2)c1` [Example 4, N-(3'-Methoxy-[1,1 '-biphenyl]-3-yl)propanamide], in assay [2], the half-inhibitory concentration (IC50) was less than 100 nM. `COCC(=O)Nc1cccc(-c2cccc(OC)c2)c1` [Example 5, N-(3'-Methoxy-[1,1'-biphenyl]-3-yl)-2-methoxyacetamide]: the IC50 in assay [2] was greater than 300 nM. Turning to `CCNC(=O)Nc1cccc(-c2cccc(OC)c2)c1` [Example 6, N-Ethyl N'-(3'-methoxy-[1,1'-biphenyl]-3-yl)urea], the IC50 was greater than 50 nM in assay [1] and greater than 300 nM in assay [2]. Consider `CCCC(=O)NCc1ccccc1-c1cccc(OC)c1` [Example 7, N-[(3'-Methoxy[1,1'-biphenyl]-2-yl)methyl]butanamide], for which the IC50 fell in the range of 10 to 50 nM in assay [1] and 100 to 300 nM in assay [2]. As for `COc1cccc(-c2ccccc2CNC(=O)C(C)C)c1` [Example 8, N-[(3'-Methoxy[1,1'-biphenyl]-2-yl)methyl]-2-methylpropanamide], the IC50 in assay [1] was less than 10 nM; in assay [2] it was 100 to 300 nM. Consider `CCNC(=O)NCc1ccccc1-c1cccc(OC)c1` [Example 9, N-Ethyl N'-[(3'-methoxy[1,1'-biphenyl]-2-yl)methyl]urea], for which the IC50 in assay [1] is less than 10 nM; in assay [2], 100 to 300 nM.

`CCCC(=O)NCc1cccc(-c2cccc(OC)c2)c1` [Example 10, N-[(3'-methoxy-[1,1'-biphenyl]-3-yl)methyl]butanamide]: the values for the IC50 in assay [1] and in assay [2] were 10 to 50 nM and greater than 300 nM, respectively. The corresponding values for `COc1cccc(-c2cccc(CNC(=O)C(C)C)c2)c1` [Example 11, N-[(3'-methoxy-[1,1'-biphenyl]-3-yl)methyl]-2-methylpropanamide] are less than 10 nM and 100 to 300 nM. The corresponding values for `CCNC(=O)NCc1cccc(-c2cccc(OC)c2)c1` [Example 12, N-Ethyl N'-[(3'-methoxy-[1,1'-biphenyl]-3-yl)methyl]urea] are 10 to 50 nM and greater than 300 nM.
